Source: patent publication US20240245657A1, “THIADIAZOLIDINONES FOR THEIR USE IN THE TREATMENT OF LIMB-GIRDLE MUSCULAR DYSTROPHY” (CONSEJO SUPERIOR DE INVESTIGACIONES CIENTÍFICAS, priority 2021, published 2024)

What was measured:
β-catenin = assay: Western blot of total and active β-catenin in human primary myotubes (Wnt pathway activation); type: cell-based; details: day 8 of differentiation, 48 h; for active β-catenin: tideglusib 1.2 μM, LiCl 10 mM
Protocol: (§1) To obtain primary myoblasts, muscle biopsies were processed and cultured in monolayer according to the method described by Askanas (Neurology, 1975, 25, 58-67). To isolate the pure population of myoblasts and CD56-negative cells (CD56-), the protocol described previously (Jaka et al., Expert Reviews in Molecular Medicine, 2017, 19, e2) was used, using immunomagnetic separation based on the early presence of the surface marker CD56 (Miltenyi Biotec, 130-050-401).
(§2) Myoblasts were cultured in proliferation medium (DMEM, M-199, Insulin, Glutamine and penicillin-streptomycin) with 10% FBS and growth factors at 37° C. in 5% CO2 air incubator. When myoblasts reached confluence, the FBS concentration was reduced to 2% and growth factors were removed from the medium, promoting fusion and production of myotubes.
(§3) Tideglusib was provided by Dr. Ana Martínez (from The Center for Biological Research, CSIC). It was administered at 1.2 μM, whereas LiCI (Sigma-Aldrich, L7026) was used for comparative purposes at a final concentration of 10 mM. Tideglusib and LiCI were administered at the above referred concentrations to myotubes at eight days of differentiation, and tideglusib also to skin fibroblasts and to CD56-cells. Negative controls, in the case of tideglusib, were performed with DMSO (Fisher Scientific, BP-231). At 48 hours after drug administration, RNA and proteins were extracted.
(§4) Protein collection from muscle samples and cell cultures, as well as Western blot procedure, were performed as previously described (Jaka et al., Expert Reviews in Molecular Medicine, 2017, 19, e2).

RPS6 = assay: Western blot of P-RPS6 (Ser235/Ser236) in human primary myotubes (controls and LGMDR1 patients); type: cell-based; details: 48 h; for P-RPS6 (S235-S236), Western blot densitometry: LiCl 10 mM; for P-RPS6 (S235-S236), protein expression value relative to the same sample without treatment: tideglusib 1.2 μM
Protocol: as §1, §2, §3, §4

GSK3 = details: low therapeutic dose of lithium (0.5 mM); cited from earlier work
GSK3β [1] = details: low dose of LiCl treatment; cited from earlier work
p70S6K = assay: Western blot of p70S6K and its phosphorylated forms in human primary myotubes (controls and LGMDR1 patients); type: cell-based; details: 48 h; for P-p70S6K (T389), protein expression value relative to the same sample without treatment / P-p70S6K (T421-S424), protein expression value relative to the same sample without treatment: tideglusib 1.2 μM
Protocol: as §1, §2, §3, §4

FRBZ gene, β1D integrin = details: primary myotubes, LiCl treatment; cited from earlier work
CD56-cells = assay: Western blot of Wnt and mTOR pathway proteins in CD56- cells from muscle; type: cell-based, human; details: 1.2 μM, 48 h
Text: (§5) To obtain primary myoblasts, muscle biopsies were processed and cultured in monolayer according to the method described by […] (Neurology, 1975, 25, 58-67). To isolate the pure population of myoblasts and CD56-negative cells (CD56-), the protocol described previously (Jaka et al., Expert Reviews in Molecular Medicine, 2017, 19, e2) was used, using immunomagnetic separation based on the early presence of the surface marker CD56 (Miltenyi Biotec, 130-050-401). Tideglusib was provided by Dr. Ana Martínez (from The Center for Biological Research, CSIC). It was administered at 1.2 μM, whereas LiCI (Sigma-Aldrich, L7026) was used for comparative purposes at a final concentration of 10 mM. Tideglusib and LiCI were administered at the above referred concentrations to myotubes at eight days of differentiation, and tideglusib also to skin fibroblasts and to CD56-cells. Negative controls, in the case of tideglusib, were performed with DMSO (Fisher Scientific, BP-231). At 48 hours after drug administration, RNA and proteins were extracted. Protein collection from muscle samples and cell cultures, as well as Western blot procedure, were performed as previously described (Jaka et al., Expert Reviews in Molecular Medicine, 2017, 19, e2).

skin fibroblasts = assay: Western blot of Wnt and mTOR pathway proteins in skin fibroblasts; type: cell-based, human; details: 1.2 μM, 48 h
Protocol: Skin fibroblasts from healthy controls and from LGMDR1 patients were provided by Dr. Ana Aiastui (Biodonostia Health Research Institute, Cell Culture and Histology Platform). Cells were cultured in Dulbecco's modified Eagle's medium (DMEM, Gibco, 41966-029) supplemented with 10% FBS (Gibco, 10270-106) and 1% penicillin-streptomycin (Gibco, 15140-122) at 37° C. in a 5% CO2 air incubator. Human fibroblasts were cultured at a density of 4×10^4 cells/ml. Tideglusib was provided by Dr. Ana Martínez (from The Center for Biological Research, CSIC). It was administered at 1.2 μM, whereas LiCI (Sigma-Aldrich, L7026) was used for comparative purposes at a final concentration of 10 mM. Tideglusib and LiCI were administered at the above referred concentrations to myotubes at eight days of differentiation, and tideglusib also to skin fibroblasts and to CD56-cells. Negative controls, in the case of tideglusib, were performed with DMSO (Fisher Scientific, BP-231). At 48 hours after drug administration, RNA and proteins were extracted. Protein collection from muscle samples and cell cultures, as well as Western blot procedure, were performed as previously described (Jaka et al., Expert Reviews in Molecular Medicine, 2017, 19, e2).

mTOR = assay: Western blot of mTOR and P-mTOR in human primary myotubes; type: cell-based; details: LGMDR1 patient's myotubes, 1.2 μM, 48 h
Protocol: as §5, with “130-050-401). Myoblasts were cultured in proliferation medium (DMEM, M-199, Insulin, Glutamine and penicillin-streptomycin) with 10% FBS and growth factors at 37° C. in 5% CO2 air incubator. When myoblasts reached confluence, the FBS concentration was reduced to 2% and growth factors were removed from the medium, promoting fusion and production of myotubes.” for “130-050-401).”

[2] = tested on: CAPN3, FOS, ANOS1 and ITGB1BP2 genes; assay: Quantitative real-time PCR of deregulated genes in LGMDR1 myotubes; type: cell-based, human; details: 1.2 μM, 48 h
Protocol: Tideglusib was provided by Dr. Ana Martínez (from The Center for Biological Research, CSIC). It was administered at 1.2 μM, whereas LiCI (Sigma-Aldrich, L7026) was used for comparative purposes at a final concentration of 10 mM. Tideglusib and LiCI were administered at the above referred concentrations to myotubes at eight days of differentiation, and tideglusib also to skin fibroblasts and to CD56-cells. Negative controls, in the case of tideglusib, were performed with DMSO (Fisher Scientific, BP-231). At 48 hours after drug administration, RNA and proteins were extracted. RNA extraction from primary myoblast/myotubes was performed with an RNeasy Mini Kit (Qiagen). In the case of the muscle biopsies, which were snap frozen and stored at −80° C. until use, total RNA was obtained using an RNA-Plus Kit (QBiogene). The isolated RNA was reverse-transcribed to first-strand complementary DNA (cDNA) in a final volume of 50 μl using a High Capacity cDNA Reverse Transcription Kit (Applied Biosystems), according to the manufacturer's instructions. The expression levels of CAPN3, FOS, ITGB1BP2, ANOS1 and GAPDH genes in the samples were assessed by real-time quantitative PCR with TaqMan probes (Table Il below) using the ‘CFX384 Real-Time PCR Detection System’ (Bio-Rad).

integrin β1D and melusin = assay: Western blot of structural (costamere) proteins in human myotubes; type: cell-based; details: 1.2 μM, 48 h
Protocol: as §5, with “130-050-401). Myoblasts were cultured in proliferation medium (DMEM, M-199, Insulin, Glutamine and penicillin-streptomycin) with 10% FBS and growth factors at 37° C. in 5% CO2 air incubator. When myoblasts reached confluence, the FBS concentration was reduced to 2% and growth factors were removed from the medium, promoting fusion and production of myotubes.” for “130-050-401).”, “Protein collection from muscle samples and cell cultures, as well as Western blot procedure, were performed as previously described (Jaka et al., Expert Reviews in Molecular Medicine, 2017, 19, e2).” left out

GSK3β [3] = assay: Western blot of GSK3β and P-GSK3β (Ser9) in human primary myotubes; type: cell-based; details: LGMDR1 patients' myotubes, day 8 of differentiation, 1.2 μM, 48 h
Protocol: To isolate the pure population of myoblasts and CD56-negative cells (CD56-), the protocol described previously (Jaka et al., Expert Reviews in Molecular Medicine, 2017, 19, e2) was used, using immunomagnetic separation based on the early presence of the surface marker CD56 (Miltenyi Biotec, 130-050-401). Myoblasts were cultured in proliferation medium (DMEM, M-199, Insulin, Glutamine and penicillin-streptomycin) with 10% FBS and growth factors at 37° C. in 5% CO2 air incubator. When myoblasts reached confluence, the FBS concentration was reduced to 2% and growth factors were removed from the medium, promoting fusion and production of myotubes. Tideglusib was provided by Dr. Ana Martínez (from The Center for Biological Research, CSIC). It was administered at 1.2 μM, whereas LiCI (Sigma-Aldrich, L7026) was used for comparative purposes at a final concentration of 10 mM. Tideglusib and LiCI were administered at the above referred concentrations to myotubes at eight days of differentiation, and tideglusib also to skin fibroblasts and to CD56-cells. Negative controls, in the case of tideglusib, were performed with DMSO (Fisher Scientific, BP-231). At 48 hours after drug administration, RNA and proteins were extracted. […]

[4] = LGMDR1 patient's myotubes, 1.2 μM
[5] = myotubes of LGMDR1 patient 09-25

[Cl-].[Li+] [LiCl]
active β-catenin (β-catenin): increase | P-RPS6 (S235-S236), Western blot densitometry (RPS6; myotubes of LGMDR1 patient 09-21, same sample without drug 1.5): 1.5 | P-RPS6 (S235-S236), Western blot densitometry (RPS6; myotubes of LGMDR1 patient 09-24, same sample without drug 3.5): 3 | P-RPS6 (S235-S236), Western blot densitometry (RPS6; myotubes of LGMDR1 patient 09-25, same sample without drug 2.8): 2.5 | P-RPS6 (S235-S236), Western blot densitometry (RPS6; myotubes of control 09-23, same sample without drug 3.0): 3.8 | P-RPS6 (S235-S236), Western blot densitometry (RPS6; myotubes of control 13-07, same sample without drug 3): 3 | GSK3 inhibition (GSK3): inhibit | myoblast fusion (GSK3): augment | GSK3β inhibition (GSK3β [1]): effective in inhibiting | fatigue resistance in some muscles via NFAT activation (GSK3β [1]): enhances | P-p70S6K (T421-S424), Western blot densitometry (p70S6K; LiCl 10 mM, myotubes of LGMDR1 patient 09-21, same sample without drug 0.3): 0.5 | P-p70S6K (T421-S424), Western blot densitometry (p70S6K; LiCl 10 mM, myotubes of LGMDR1 patient 09-24, same sample without drug 1.8): 1.4 | P-p70S6K (T421-S424), Western blot densitometry (p70S6K; LiCl 10 mM, myotubes of LGMDR1 patient 09-25, same sample without drug 0.7): 0.65 | P-p70S6K (T421-S424), Western blot densitometry (p70S6K; LiCl 10 mM, myotubes of control 09-23, same sample without drug 0.8): 0.78 | P-p70S6K (T421-S424), Western blot densitometry (p70S6K; LiCl 10 mM, myotubes of control 13-07, same sample without drug 0.8): 0.7 | proteins involved in the mTOR pathway and their phosphorylation forms (p70S6K, RPS6) (p70S6K; control and LGMDR1 patient's myotubes, LiCl 10 mM): did not provide any increase | expression of the FRBZ gene (FRBZ gene, β1D integrin): lower levels | β1D adult isoform of the integrin (FRBZ gene, β1D integrin): higher levels

O=c1sn(-c2cccc3ccccc23)c(=O)n1Cc1ccccc1 [Tideglusib, 4-benzyl2-naphthalen-1-yl-[1,2,4]thiadiazolidine-3,5-dione]
total β-catenin expression (β-catenin; 1.2 μM): increase | active β-catenin (β-catenin): increase | active form of β-catenin (CD56-cells): no significant alteration | amount of total β-catenin (CD56-cells): no significant alteration | mTOR (CD56-cells): no differences | phosphorylation of RPS6 (CD56-cells): no differences | phosphorylation of p70S6K (CD56-cells): no differences | active form of β-catenin (skin fibroblasts): did not show an increase | phosphorylation of GSK3β (Ser9) (skin fibroblasts): did not show an increase | phosphorylation of RPS6 (skin fibroblasts): decrease | β-catenin (skin fibroblasts): did not show an increase | phosphorylation of RPS6 (Ser235/Ser236) (RPS6; [4]): increased | P-RPS6 (S235-S236), protein expression value relative to the same sample without treatment (RPS6; [5]): 1.6 | P-RPS6 (S235-S236), protein expression value relative to the same sample without treatment (RPS6; myotubes of control 13-05): 0.8 | phosphorylation of mTOR (Ser2448) (mTOR): significant increase | phosphorylation of mTOR (Ser2481) (mTOR): significant increase | total mTOR (mTOR): no significant changes | expression of ANOS1 gene [2]: increase | expression of CAPN3 gene [2]: increase | expression of FOS gene [2]: increase | expression of ITGB1BP2 gene [2]: increase | expression of total p70S6K (p70S6K; [4]): increased | phosphorylation of p70S6K (Thr389) (p70S6K; [4]): increased | phosphorylation of p70S6K (Thr421/Ser424) (p70S6K; [4]): increased | effect on p70S6K, its phosphorylation and P-RPS6 (p70S6K; control myotubes, 1.2 μM): very slight | P-p70S6K (T389), protein expression value relative to the same sample without treatment (p70S6K; [5]): 1.8 | P-p70S6K (T421-S424), protein expression value relative to the same sample without treatment (p70S6K; [5]): 1.8 | P-p70S6K (T389), protein expression value relative to the same sample without treatment (p70S6K; myotubes of control 13-05): 0.85 | P-p70S6K (T421-S424), protein expression value relative to the same sample without treatment (p70S6K; myotubes of control 13-05): 0.8 | integrin β1D protein (integrin β1D and melusin): increase | melusin protein (integrin β1D and melusin): increase | amount of total GSK3β (GSK3β [3]): increases | phosphorylation of GSK3β (Ser9) (GSK3β [3]): increases
